According to patent US20230002334A1, “TRPM8 MODULATORS” (Givaudan SA, priority 2019, published 2023):
pEC50: −log10 of the molar value. Read-outs that look alike come from different tables or passages of the source.

Key:
[1] = tested on: panelists (mouth, mucosa); assay: Sensory studies in aqueous solution (trained panel, swilling in the mouth); format: in vivo, human; details: 40 ppm in aqueous solution; for time of max cooling / Max. cooling: 20 mL swilled 60 seconds; for Max. cooling / Cooling after 1 h: averaged panel score on scale 0 to 10; for Cooling after 1 h: 1 h after swilling
Method: The compounds as listed below in Table 2 were dissolved at a concenteration of 1 wt-% in propylene glycol. These solutions were then dispensed in appropriate quantities into deionized water containing 0.5 wt-% Poloxamer 407 (which is a hydrophilic non-ionic surfactant, e.g., commercially available from SigmaAldrich) and 0.25 wt-% Cremaphor® RH40 (obtained from BASF) as solubilizer, to obtain the desired final concentration of 40 ppm (parts per milion) of the respective compound.
A trained group of panelists evaluated the aqueous solutions containing test compound by swilling 20 mL of the solution in the mouth for 60 seconds, followed by spitting, without rinsing the mouth afterwards for the duration of the evaluation. Panelists evaluated and recorded the cooling performance as well as other sensorial and organoleptic attributes at different timepoints over a period of two hours. Cooling performance was rated on a scale from 0 to 10 with 0 being no effect and 10 being freezing. Scores were averaged for all panelists and the cooling intensity qualified as “N” for “none” (score of 0), “L” for “low” (score above 0, up to 1), “M” for “medium” (score above 1, up to 4), “S” for “strong” (score above 4, up to 8) and “E” for “extreme” (score above 8), which are provided in Table 2. […] All tasted samples developed cooling sensation starting during swilling (almost immediately upon contact with the mucosa) and before expectorating.

[2] = target: T1, hTRPM8 (Homo sapiens, UniProt Q7Z2W7); assay: Assay on TRPM8 modulators: calcium imaging (Fluo-4, Flexstation) in HEK293 cell line stably expressing hTRPM8; format: cell-based
T1 construct: expressed in transfected cells
In short: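 Calcium influx monitored by Fluo-4 (2.7 μM with […] probenecid, 1 h 37 °C loading) in HEK293 cells stably expressing hTRPM8, in HEPES buffer pH 7.4 with 2 mM CaCl2. Fluorescence read 15 s before and 105 s after adding serial compound dilutions. Maximal activation relative to solvent and 31.6 μM menthol; EC50 from sigmoidal fit.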

[3] = tested on: panelists (mouth); assay: Sensory studies in model dentifrice (trained panel, tooth brushing); format: in vivo, human; details: 100 ppm in model unflavored dentifrice; for time of max cooling / Max. cooling: 1 g brushed 60 seconds; for Max. cooling / Cooling after 1 h: averaged panel score on scale 0 to 10; for Cooling after 1 h: 1 h after brushing
Method: The compounds listed in Table 3 were dissolved at a concenteration of 1 wt-% in propylene glycol. These solutions were then dispersed in appropriate quantities to obtain the desired final concentration of 100 ppm (parts per milion) of the test compound into a model, unflavored dentifrice, the formula of which is given below (ingredients obtained from the suppliers respectively indicated in parenthesis).
A trained group of panelists evaluated the dentifrice containing a compound of formula (I), by brushing their teeth with 1 g of the dentifrice using a toothbrush for 60 seconds, followed by spitting, without rinsing the mouth afterwards for the duration of the evaluation. Panelists evaluated and recorded the cooling performance as well as other sensorial and organoleptic attributes at different timepoints over a period of two hours. Cooling performance was rated on a scale from 0 to 10 with 0 being no effect and 10 being freezing. Scores were averaged for all panelists and the cooling intensity qualified as “N” for “none” (score of 0), “L” for “low” (score above 0, up to 1), “M” for “medium” (score above 1, up to 4), “S” for “strong” (score above 4, up to 8) and “E” for “extreme” (score above 8), which are summarized below in Table 3. […] All tasted samples developed cooling sensation starting during brushing, before expectorating.

[4] = HEK293 cells stably expressing hTRPM8, calcium influx, sigmoidal dose-response fit, read-out: EC50

T1 sequence (Q7Z2W7 whole entry): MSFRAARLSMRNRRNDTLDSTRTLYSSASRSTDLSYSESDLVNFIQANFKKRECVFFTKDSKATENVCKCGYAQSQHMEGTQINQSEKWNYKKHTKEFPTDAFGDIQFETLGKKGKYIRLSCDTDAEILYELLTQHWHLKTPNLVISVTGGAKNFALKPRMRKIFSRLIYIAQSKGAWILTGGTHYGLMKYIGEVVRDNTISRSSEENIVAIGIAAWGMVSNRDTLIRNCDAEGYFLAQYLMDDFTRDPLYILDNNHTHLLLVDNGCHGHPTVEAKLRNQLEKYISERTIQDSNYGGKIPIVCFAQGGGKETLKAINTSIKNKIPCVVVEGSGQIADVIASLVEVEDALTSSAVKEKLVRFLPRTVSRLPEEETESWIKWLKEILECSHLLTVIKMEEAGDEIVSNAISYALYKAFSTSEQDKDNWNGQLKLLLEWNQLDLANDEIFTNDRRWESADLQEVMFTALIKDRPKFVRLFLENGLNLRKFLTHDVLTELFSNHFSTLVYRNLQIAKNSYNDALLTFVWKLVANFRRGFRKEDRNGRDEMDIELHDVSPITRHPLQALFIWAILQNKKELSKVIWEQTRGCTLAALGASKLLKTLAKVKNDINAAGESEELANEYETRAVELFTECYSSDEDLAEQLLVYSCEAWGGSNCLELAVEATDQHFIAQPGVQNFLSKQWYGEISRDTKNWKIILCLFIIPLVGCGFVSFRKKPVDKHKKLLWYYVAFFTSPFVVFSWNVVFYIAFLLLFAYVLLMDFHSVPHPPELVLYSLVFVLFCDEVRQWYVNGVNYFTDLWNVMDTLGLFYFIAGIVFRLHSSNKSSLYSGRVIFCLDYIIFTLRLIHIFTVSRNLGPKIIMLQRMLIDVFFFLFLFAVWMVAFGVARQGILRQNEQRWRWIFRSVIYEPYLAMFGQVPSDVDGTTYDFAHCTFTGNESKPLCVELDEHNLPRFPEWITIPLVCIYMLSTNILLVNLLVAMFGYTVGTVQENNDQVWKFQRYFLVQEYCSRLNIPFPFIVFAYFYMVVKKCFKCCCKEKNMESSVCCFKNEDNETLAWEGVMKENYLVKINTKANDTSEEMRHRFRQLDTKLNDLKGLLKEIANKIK

pEC50 [2, 4] | Structure (SMILES) | time of max cooling [1] | Max. cooling [1] | Cooling after 1 h [1] | time of max cooling [3] | Max. cooling [3] | Cooling after 1 h [3] | pEC50 [2]
> 7.30 | COc1ccccc1[C@H]1C[C@@H]2[C@@H]([C@@H](C)C1)N(C(C)C)OC2(C)C (racemic) [Compound 66, rac-(3aR,5R,7S,7aR)-1-isopropyl-5-(2-methoxyphenyl)-3,3,7-trimethyloctahydrobenzo[c]isoxazole] | 20 min | M (“M” for “medium” (score above 1, up to 4)) | M (“M” for “medium” (score above 1, up to 4)) | – | – | – | –
> 7.30 | Cc1ccc(C#N)cc1[C@@]1(C)C[C@@H]2[C@@H]([C@@H](C)C1)N(C)OC2(C)C (stereo in doubt) [Compound 135, rac-4-methyl-3-((3aR,5R,7S,7aR)-1,3,3,5,7-pentamethyloctahydrobenzo[c]isoxazol-5-yl)benzonitrile] | 10 min | E (“E” for “extreme” (score above 8)) | M (“M” for “medium” (score above 1, up to 4)) | 5 min | S (“S” for “strong” (score above 4, up to 8)) | M (“M” for “medium” (score above 1, up to 4)) | –
6.00 to 6.52 | CC(C)=CCC1(C)CC(C)C2C(C1)C(C)(C)ON2C (centres unmarked) [Compound 1, 1,3,3,5,7-pentamethyl-5-(3-methylbut-2-en-1-yl)octahydrobenzo[c]isoxazole] | 20 min | M (“M” for “medium” (score above 1, up to 4)) | M (“M” for “medium” (score above 1, up to 4)) | – | – | – | –
– | CC(C)=CC[C@H]1C[C@@H]2[C@@H]([C@@H](C)C1)N(C)OC2(C)C (racemic) [Compound 50, rac-(3aR,5R,7S,7aR)-1,3,3,7-tetramethyl-5-(3-methylbut-2-en-1-yl)octahydrobenzo[c]isoxazole] | 10 min | M (“M” for “medium” (score above 1, up to 4)) | M (“M” for “medium” (score above 1, up to 4)) | – | – | – | 6.52 to 7.30
6.00 to 6.52 | CCN1OC(C)(C)C2CC(CC=C(C)C)CC(C)C21 (racemic) [Compound 120, rac-(3aS,5S,7S,7aS)-1-ethyl-3,3,7-trimethy)-5-(3-methylbut-2-en-1-yl)octahydrobenzo[c]isoxazole] | 10 min | M (“M” for “medium” (score above 1, up to 4)) | L (“L” for “low” (score above 0, up to 1)) | – | – | – | –
6.00 to 6.52 | CC1=CC[C@H](C2CCC3C(C2)N(C)OC3(C)C)CC1 (stereo partly drawn) [Compound 7, 1,3,3-trimethyl-6-((R)-4-methylcyclohex-3-en-1-yl)octahydrobenzo[c]isoxazole] | 10 min | M (“M” for “medium” (score above 1, up to 4)) | L (“L” for “low” (score above 0, up to 1)) | – | – | – | –
6.52 to 7.30 | CCN1OC(C)(C)C2CC(C)(CC=C(C)C)CC(C)C21 (centres unmarked) [Compound 9, 1-ethyl-3,3,5,7-tetramethyl-5-(3-methylbut-2-en-1-yl)octahydrobenzo[c]isoxazole] | 10 min | M (“M” for “medium” (score above 1, up to 4)) | M (“M” for “medium” (score above 1, up to 4)) | – | – | – | –
> 7.30 | Cc1ccccc1[C@@]1(C)C[C@@H]2[C@@H]([C@@H](C)C1)N(C)OC2(C)C (racemic) [Compound 46, rac-(3aR,5R,7S,7aR)-1,3,3,5,7-pentamethyl-5-(o-tolyl)octahydrobenzo[c]isoxazole] | 10 min | S (“S” for “strong” (score above 4, up to 8)) | M (“M” for “medium” (score above 1, up to 4)) | 20 min | S (“S” for “strong” (score above 4, up to 8)) | M (“M” for “medium” (score above 1, up to 4)) | –
> 7.30 | C[C@H]1C[C@@](C)(c2cc(F)cc(F)c2)C[C@@H]2[C@@H]1N(C)OC2(C)C (racemic) [Compound 85, rac-(3aR,5R,7S,7aR)-5-(3,5-difluorophenyl)-1,3,3,5,7-pentamethyloctahydrobenzo[c]isoxazole] | 10 min | M (“M” for “medium” (score above 1, up to 4)) | M (“M” for “medium” (score above 1, up to 4)) | – | – | – | –
6.52 to 7.30 | CC(C)N1OC(C)(C)[C@@H]2C[C@H](c3ccccc3)C[C@H](C)[C@H]21 (racemic) [Compound 64, rac-(3aR,5R,7S,7aR)-1-isopropyl-3,3,7-trimethyl-5-phenyloctahydrobenzo[c]isoxazole] | 10 min | M (“M” for “medium” (score above 1, up to 4)) | M (“M” for “medium” (score above 1, up to 4)) | – | – | – | –
> 7.30 | C[C@H]1C[C@@](C)(c2cccc(C#N)c2)C[C@@H]2[C@@H]1N(C)OC2(C)C (racemic) [Compound 124, rac-3-((3aR,5R,7S,7aR)-1,3,3,5,7-pentamethyloctahydrobenzo[c]isoxazol-5-yl)benzonitrile] | 5 min | S (“S” for “strong” (score above 4, up to 8)) | M (“M” for “medium” (score above 1, up to 4)) | – | – | – | –
> 7.30 | COc1ccccc1[C@H]1C[C@@H]2[C@@H]([C@@H](C)C1)N(C)OC2(C)C (racemic) [Compound 83, rac-(3aR,5R,7S,7aR)-5-(2-methoxyphenyl)-1,3,3,7-tetramethyloctahydrobenzo[c]isoxazole] | 10 min | S (“S” for “strong” (score above 4, up to 8)) | L (“L” for “low” (score above 0, up to 1)) | – | – | – | –

Structure (SMILES) | pEC50 [2, 4] | time of max cooling [1] | Max. cooling [1] | Cooling after 1 h [1] | time of max cooling [3] | Max. cooling [3] | Cooling after 1 h [3] | pEC50 [2]
CC1CC(C)C2C(C1)C(C)(C)ON2C(C)C (centres unmarked) [Compound 12, 1-isopropyl-3,3,5,7-tetramethyloctahydrobenzo[c]isoxazole] | 6.00 to 6.52 | 5 min | M (“M” for “medium” (score above 1, up to 4)) | L (“L” for “low” (score above 0, up to 1)) | – | – | – | –
CC[C@@H]1C[C@H](CC)[C@@H]2[C@@H](C1)C(C)(C)ON2C(C)C (racemic) [Compound 111, rac-(3aR,5R,7S,7aR)-5,7-diethyl-1-isopropyl-3,3-dimethyloctahydrobenzo[c]isoxazole] | 6.00 to 6.52 | 10 min | M (“M” for “medium” (score above 1, up to 4)) | L (“L” for “low” (score above 0, up to 1)) | – | – | – | –
CCC[C@@H]1CC[C@@H]2[C@@H](C1)C(C)(C)ON2C(C)C (racemic) [Compound 26, rac-(3aR,5R,7aR)-1-isopropyl-3,3-dimethyl-5-propyloctahydrobenzo[c]isoxazole] | 6.00 to 6.52 | 10 min | S (“S” for “strong” (score above 4, up to 8)) | M (“M” for “medium” (score above 1, up to 4)) | – | – | – | –
CCC[C@@H]1CC[C@@H]2[C@@H](C1)C(C)(C)ON2C (racemic) [Compound 24, rac-(3aR,5R,7aR)-1,3,3-trimethyl-5-propyloctahydrobenzo[c]isoxazole] | 6.00 to 6.52 | – | – | – | – | – | – | –
CC1CC(C)C2C(C1)C(C)(C)ON2C (centres unmarked) [Compound 4, 1,3,3,5,7-pentamethyloctahydrobenzo[c]isoxazole] | 4.46 to 6.00 | 3 min | M (“M” for “medium” (score above 1, up to 4)) | L (“L” for “low” (score above 0, up to 1)) | – | – | – | –
